Data set [1] concerns HT-29. Kind of data set: Cytotoxicity against human HT-29 cells. Type of data set: functional. To be noted: read-out: ED50 (the source's name).
The subject of data set [2] is A549. Kind of data set: Cytotoxicity against human A549 cells. To be noted: for EC50: Homo sapiens, A549, read-out: ED50 (the source's name). Type of data set: functional.
For data set [3], the system named is MCF7. Kind of data set: Cytotoxicity against human MCF7 cells. Type of data set: functional. To be noted: for EC50: Homo sapiens, MCF7, read-out: ED50 (the source's name).
A short description of data set [4]: Toxicity against brine shrimp. Type of data set: organism-based. To be noted: artemia, in vivo; read-out: ED50 (the source's name).
In data set [5] the test system is MCF7. Kind of data set: Selectivity index, ratio of IC50 for human A549 cells to IC50 for human MCF7 cells. Type of data set: functional.
Data set [6] has as its system MCF7. Kind of data set: Selectivity index, ratio of IC50 for human HT-29 cells to IC50 for human MCF7 cells. Type of data set: functional.

In brackets after ≈: the same amount, converted by molar mass.

The results in this text go back to ChEMBL document CHEMBL1151139, “Bullatacin, bullatacinone, and squamone, a new bioactive acetogenin, from the bark of Annona squamosa” (J Nat Prod, 1990).

Turning to `CCCCCCCCCC[C@H](O)[C@H]1CC[C@H]([C@H]2CC[C@H]([C@H](O)CCCCCCCCCC[C@@H]3CC(CC(C)=O)C(=O)O3)O2)O1` (some centres undefined) [BULLATACINONE], the EC50 in data set [1] is under 0.001 µg/mL. Further, the ED50 was 1.44 ×10⁻⁴ ug/ml in data set [2] and under 1 ×10⁻⁷ ug/ml in data set [3].

Regarding `COc1cccc2c1C(=O)c1c(O)c3c(c(O)c1C2=O)C[C@@](O)(C(=O)CO)C[C@@H]3O[C@H]1C[C@H](N)[C@H](O)[C@H](C)O1` [DOXORUBICIN], the EC50 in data set [1] worked out at 0.0301 µg/mL (≈ 0.0554 µM); in data set [2] it was 0.00696 µg/mL (≈ 0.0128 µM); in data set [3], 0.029 µg/mL (≈ 0.0534 µM).

On to `CCCCCCCCCCCC[C@H](O)[C@@H]1CC[C@@H]([C@@H](O)CCCCCC(=O)CCCCC2CC(CC(C)=O)C(=O)O2)O1` (some centres undefined) [SQUAMONE], for which the EC50 in data set [1] worked out at 1.5 µg/mL (≈ 2.52 µM). In data set [4], the LC50 amounted to 2.1 µg/mL (≈ 3.53 µM).

For `CCCCCCCCCCCC[C@H](O)[C@@H]1CC[C@@H]([C@@H](O)CCCCCC(O)CCCCC2CC(CC(C)O)C(=O)O2)O1` (some centres undefined) [TETRAHYDROSQUAMONE], the “Ratio ED50” value in data set [5] and in data set [6] was 100 each time. The EC50 in data set [1] was 0.298 µg/mL (≈ 0.498 µM); in data set [2], 0.141 µg/mL (≈ 0.235 µM); in data set [3], 0.00989 µg/mL (≈ 0.0165 µM). Besides, the LC50 in data set [4] was 2.7 µg/mL (≈ 4.51 µM).
